From patent US11447495B2, “Substituted benzo[f]imidazo[1,5-a][1,4]diazepines as GABA(a) receptor modulators” (priority 2016, dated 2022)

Experiments:
HEPG2 = assay: Cytotoxicity, liver cells; format: cell-based, human; settings: human, HepG2 liver cells
[1] = tested on: inflammatory cells, eosinophils, CD4+ T cells in BALF; assay: Inflammatory cell numbers in BALF by flow cytometry; format: in vivo, ova s/c BALB/c mice; settings: 100 mg/kg twice daily for 5 days
Description: The change of the number of specific immune cells caused by compounds may be investigated in the bronchoalveolar lavage fluid (BALF) of Ova S/C mice. Therefore, a bronchoalveolar lavage may be carried out followed by the lysis of red blood cells. Incubation of cell-type specific antibodies with BALF may allow the quantification of leukocytes such as eosinophils and CD4^+ T-lymphocytes using flow cytometry.
Determination of anti-inflammatory properties of compounds were investigated in an allergen induced mouse model of asthma. At the day of analysis, bronchoalveolar lavage (BAL) was performed with 1 mL of Ca2+ and Mg2+ free PBS. Red blood cells (RBCs) were lysed using BD red blood cell lysis buffer (BD Pharmingen, San Jose, Calif.). BALF was split into four different tubes and non-specific binding to Fc receptors was blocked for 5 minutes using 6 μg/mL of 2.4G2 mouse BD Fc Block™ (BD Pharmingen, San Jose, Calif.). BALF cells were stained for 30 minutes at 4° C. in the dark with 100 μL BSA stain buffer (BD Pharmingen, San Jose, Calif.) containing the final concentrations of the following antibodies: anti-mouse CD45 APC (1:1000, 30-F11, Affymetrix eBiosciences, San Diego, Calif.), FITC rat anti-mouse CD4 (1:500, RM4-5, BD Pharmingen, San Jose, Calif.), PE Rat Anti-Mouse Siglec F (1:500, E50-2440, BD Pharmingen, San Jose, Calif.) and mouse CCR3 PE-conjugated antibody (1:40, 83101, R&D systems Inc, Minneapolis, Minn.). Flow cytometric studies were done using the BD FACS Calibur (BD Pharmingen, San Jose, Calif.) and data analyzed subsequently using Cell Quest pro software (BD Pharmingen, San Jose, Calif.). General gating for immune cells were followed. Total inflammatory cell count was obtained by running all samples on high (60 μL/min) for 180 seconds. The gated anti-mouse CD45 positive events in the fourth channel (FL4) were used to calculate the total inflammatory cell count as cells/mL. The frequencies of CCR3+/Siglec F were used for quantification of eosinophils and CD4+ for CD4+ T cell populations in their respective gates were multiplied by the total inflammatory cell count (cells/mL) to obtain the differential cell population. Statistical analysis: Data were analyzed using GraphPad Prism 4 (GraphPad Software, San Diego, Calif.) and expressed as mean±SEM. One-way analysis of variance (ANOVA) with Dunnet post hoc test or two-way ANOVA with Bonferroni post hoc test were performed for statistical difference for multiple groups. FIGS. 7A-7C show effects of compounds on inflammatory cells. Groups of 10 ova s/c BALB/c mice were administered compounds at 100 mg/kg twice daily for 5 days. BALF was harvested from each animal and used for (A) quantification of total inflammatory cells; (B) eosinophils; (C) CD4^+ T cells. Cells were stained with mouse CD45^+ APC antibody, and samples were analyzed with BD FACS Calibur on high flow rate (60 μl/minute) for 180 seconds. The gated positive events in the fourth channel (FL4) were used to calculate the total inflammatory cell count as cells/ml. Quantification of specific leukocyte population (B) eosinophils (C) CD4^+ T cell populations were stained with specific antibodies and detected by flow cytometry. Data represent mean±SEM from 10 mice in each group. *, **, and *** indicate p<0.05, p<0.01, and p<0.001 significance, respectively, compared to vehicle treated ova s/c BALB/c mice.

[2] = Pharmacokinetic analysis in blood, lungs and brain; settings: mouse, 25 mg/kg oral gavage
[3] = Microsomal stability, human liver microsomes; format: in vitro ADME; settings: 10 μM compound
Description: The metabolic stability of compounds in vivo can be estimated with the stability of compounds in the presence of liver microsomes. Therefore, 4 μL of 1 mM DMSO solution of test compound at a final concentration of 10 μM were preincubated at 37° C. for 5 minutes on a digital heating shaking dry bath (Fischer scientific, Pittsburgh, Pa.) in a mixture containing 282 μL of water, 80 μL of phosphate buffer (0.5 M, pH 7.4) 20 μL of NADPH Regenerating System Solution A (BD Bioscience, San Jose, Calif.) and 4 μL of NADPH Regenerating System Solution B (BD Bioscience, San Jose, Calif.) in a total volume of 391.2 μL. Following preincubation, the reaction was initiated by addition of 8.8 μL of either human liver microsomes (BD Gentest, San Jose, Calif.) or mouse liver microsomes (Life technologies, Rockford, Ill.) at a protein concentration of 0.5 mg/mL. Aliquots of 50 μL were taken at time intervals of 0 (without microsomes), 10, 20, 30, 40, 50 and 60 minutes. Each aliquot was added to 100 μL of cold acetonitrile solution containing 1 μM of verapamil HCL as internal standard. This was followed by sonication for 10 seconds and centrifugation at 10,000 rpm for 5 minutes. 100 μL of the supernatant was transferred into Spin-X HPLC filter tubes (Corning Incorporated, NY) and centrifuged at 13,000 rpm for 5 minutes. The filtrate was diluted 100-fold and subsequently analyzed by LC-MS/MS with Shimadzu LCMS 8040, (Shimadzu Scientific Instruments, Columbia, Md.). The ratio of the peak areas of the internal standard and test compound was calculated for every time point and the natural log of the ratio were plotted against time to determine the linear slope (k). The metabolic rate (k*C0/C), half-life (0.693/k), and […] (V*k) were calculated, where k is the slope, C0 is the initial concentration of test compound, C is the concentration of microsomes, and V is the volume of incubation in μL per microsomal protein in mg. All experiments were repeated two time in triplicates.

SMILES	LD50 HEPG2 (Liver) (HEPG2) [µM]	numbers of CD4+ T cells [1]	numbers of eosinophils [1]	bioavailability [2]	HLM % remaining after 60 min [3] [%]	numbers of inflammatory cells in BALF [1]
CCOC(=O)c1ncn2c1[C@@H]1CCCN1C(=O)c1cc(O)ccc1-2 [RJ-02-50, ethyl (S)-7-hydroxy-9-oxo-11,12,13,13a-tetrahydro-9H-benzo[e]imidazo[5,1-c]pyrrolo[1,2-a][1,4]diazepine-1-carboxylate]	>400	did reduce the numbers of eosinophils and CD4^+ T cells	did reduce the numbers of eosinophils	excellent bioavailability	91.7 ± 0.2	–
C#Cc1ccc2c(c1)C(c1ccccc1F)=N[C@H](C)c1c(C(=O)O)ncn1-2 [SH-053-2′F-R-CH3-Acid, (R)-8-ethynyl-6-(2-fluorophenyl)-4-methyl-4H-benzo[f]imidazo[1,5-a][1,4]diazepine-3-carboxylic acid]	>400	but not CD4^+ T cells	reduced the numbers of eosinophils	excellent bioavailability	92.0 ± 0.2	–
C[C@H]1N=C(c2ccccc2F)c2cc(Br)ccc2-n2cnc(C(=O)O)c21 [GL-II-93, (R)-8-bromo-6-(2-fluorophenyl)-4-methyl-4H-benzo[f]imidazo[1,5-a][1,4]diazepine-3-carboxylic acid]	>400	did reduce the numbers of eosinophils and CD4^+ T cells	did reduce the numbers of eosinophils	excellent bioavailability	–	–
O=C1c2cc(O)ccc2-n2cnc(-c3cnco3)c2[C@@H]2CCCN12 [RJ-03-30, (S)-7-hydroxy-1-(oxazol-5-yl)-11,12,13,13a-tetrahydro-9H-benzo[e]imidazo[5,1-c]pyrrolo[1,2-a][1,4]diazepin-9-one]	>400	–	–	–	91.8 ± 0.2	did not modulate the numbers of inflammatory cells
